In patent publication US20100076015A1, “Aminopyridine Derivatives” (VANTIA LIMITED, priority 2008, published 2010):

The molecules below were run against T1, Human KLK1 (Homo sapiens, UniProt P06870) (assay: Determination of the IC50 for KLK1 (fluorogenic substrate H-DVal-Leu-Arg-AFC)). Conditions: 37° C.
T1 construct: purchased Callbiochem (Calbiochem)
Type: biochemical
Procedure: Determination of the IC50 for KLK1
KLK1 inhibitory activity in vitro was determined using standard published methods (see e.g. Johansen et al., Int. J. Tiss. Reac. 1986, 8, 185; Shori et al., Biochem. Pharmacol., 1992, 43, 1209; Stürzebecher et al., Biol. Chem. Hoppe-Seyler, 1992, 373, 1025). Human KLK1 (Callbiochem) was incubated at 37° C. with the fluorogenic substrate H-DVal-Leu-Arg-AFC and various concentrations of the test compound. Residual enzyme activity (initial rate of reaction) was determined by measuring the change in optical absorbance at 410 nm and the IC50 value for the test compound was determined.

T1 sequence (P06870 25-262): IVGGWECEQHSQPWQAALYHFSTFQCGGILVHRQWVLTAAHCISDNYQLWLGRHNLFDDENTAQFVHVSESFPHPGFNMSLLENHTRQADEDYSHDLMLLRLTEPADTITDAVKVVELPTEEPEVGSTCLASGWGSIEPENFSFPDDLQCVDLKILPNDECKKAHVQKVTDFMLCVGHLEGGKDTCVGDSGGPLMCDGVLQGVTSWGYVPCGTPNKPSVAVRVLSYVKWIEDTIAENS

Compound	IC50
CCC(C)[C@@H](NC)C(=O)N[C@@H](Cc1cccc(Cl)c1)C(=O)NCc1ccc(N)nc1 (stereo partly drawn) [Example 45, (R)-3-Methyl-2-methylamino-pentanoic acid [(S)-1-[(6-amino-pyridin-3-ylmethyl)-carbamoyl]-2-(3-chloro-phenyl)-ethyl]-amide]	3.1 nM
CCC(C)[C@@H](NC)C(=O)N[C@@H](Cc1ccc(Cl)cc1)C(=O)NCc1ccc(N)nc1 (stereo partly drawn) [Example 46, (R)-3-Methyl-2-methylamino-pentanoic acid [(S)-1-[(6-amino-pyridin-3-ylmethyl)-carbamoyl]-2-(4-chloro-phenyl)-ethyl]-amide]	1.2 nM
CCC(C)[C@@H](NC)C(=O)N[C@@H](Cc1ccc(O)cc1)C(=O)NCc1ccc(N)nc1 (stereo partly drawn) [Example 47, (R)-3-Methyl-2-methylamino-pentanoic acid [(S)-1-[(6-amino-pyridin-3-ylmethyl)-carbamoyl]-2-(4-hydroxy-phenyl)-ethyl]-amide]	316 nM
CCC(C)[C@@H](NC)C(=O)N[C@@H](Cc1cc(F)c(F)cc1F)C(=O)NCc1ccc(N)nc1 (stereo partly drawn) [Example 48, (R)-3-Methyl-2-methylamino-pentanoic acid [(S)-1-[(6-amino-pyridin-3-ylmethyl)-carbamoyl]-2-(2,4,5-trifluoro-phenyl)-ethyl]-amide]	8 nM
CCC(C)[C@@H](NC)C(=O)N[C@@H](Cc1cc(F)cc(F)c1)C(=O)NCc1ccc(N)nc1 (stereo partly drawn) [Example 49, (R)-3-Methyl-2-methylamino-pentanoic acid [(S)-1-[(6-amino-pyridin-3-ylmethyl)-carbamoyl]-2-(3,5-difluoro-phenyl)-ethyl]-amide]	4.2 nM
CCC(C)C(NC)C(=O)NC(Cc1c(F)c(F)c(F)c(F)c1F)C(=O)NCc1ccc(N)nc1 [Example 50, (R)-3-Methyl-2-methylamino-pentanoic acid {(S)-1-[(6-amino-pyridin-3-ylmethyl)-carbamoyl]-2-pentafluorophenyl-ethyl}-amide]	29.1 nM
CCC(C)[C@@H](NC)C(=O)N[C@@H](Cc1csc2ccccc12)C(=O)NCc1ccc(N)nc1 (stereo partly drawn) [Example 51, (R)-3-Methyl-2-methylamino-pentanoic acid {(S)-1-[(6-amino-pyridin-3-ylmethyl)-carbamoyl]-2-benzo[b]thiophen-3-yl-ethyl}-amide]	0.26 nM
CCC(C)[C@@H](NC)C(=O)N[C@@H](Cc1ccc(C(C)(C)C)cc1)C(=O)NCc1ccc(N)nc1 (stereo partly drawn) [Example 52, (R)-3-Methyl-2-methylamino-pentanoic acid [(S)-1-[(6-amino-pyridin-3-ylmethyl)-carbamoyl]-2-(4-tert-butyl-phenyl)-ethyl]-amide]	24.5 nM

Results, then the molecule that gave them:

IC50	Compound
0.7 nM	Nc1ccc(CNC(=O)[C@H](Cc2ccc(Cl)c(Cl)c2)NC(=O)[C@H]2CCCN2)cn1 [Example 55, (R)-Pyrrolidine-2-carboxylic acid [(S)-1-[(6-amino-pyridin-3-ylmethyl)-carbamoyl]-2-(3,4-dichloro-phenyl)-ethyl]-amide]
7.1 nM	Nc1ccc(CNC(=O)[C@H](Cc2ccc(Cl)c(Cl)c2)NC(=O)[C@H]2CSCN2)cn1 [Example 56, (S)-Thiazolidine-4-carboxylic acid [(S)-1-[(6-amino-pyridin-3-ylmethyl)-carbamoyl]-2-(3,4-dichloro-phenyl)-ethyl]-amide]
4.6 nM	Nc1ccc(CNC(=O)[C@H](Cc2ccc(Cl)c(Cl)c2)NC(=O)[C@H](N)c2ccccc2)cn1 [Example 57, (S)-2-((R)-2-Amino-2-phenyl-acetylamino)-N-(6-amino-pyridin-3-ylmethyl)-3-(3,4-dichloro-phenyl)-propionamide]
48.6 nM	Nc1ccc(CNC(=O)[C@H](Cc2ccc(Cl)c(Cl)c2)NC(=O)[C@@H](N)c2ccccc2)cn1 [Example 58, (S)-2-((S)-2-Amino-2-phenyl-acetylamino)-N-(6-amino-pyridin-3-ylmethyl)-3-(3,4-dichloro-phenyl)-propionamide]
